Data on one molecule can be found in patent US11426409B2, “Compounds, compositions and methods for treating or preventing HER-driven drug-resistant cancers” (The Regents of the University of Colorado, priority 2017, dated 2022).

The test system of this assay is HER2 phosphorylation. The settings on record: HER2-driven cell lines, 2 hours, normoxic, immunoblot.

`CN(C)CC=CC(=O)Nc1cc2c(Nc3ccc(F)c(Cl)c3)ncnc2cc1O[C@H]1CCOC1` [afatinib, N-[4-[(3-Chloro-4-fluorophenyl)amino]-7-[[(3S)-tetrahydro-3-furanyl]oxy]-6-quinazolinyl]-4(dimethylamino)-2-butenamide]: the “Concentration inhibiting HER2 phosphorylation (pHER2)” value worked out at 100 nM.
